For 1 compound, Kd results are on record in article PMC2914800 (Biochemistry, 2010).

The target of experiment [1] is HasAp (Pseudomonas aeruginosa, UniProt G3XD33). Nature of the experiment: stopped-flow UV-vis kinetics at […] °C. Type of experiment: binding.
In experiment [2] the target is T1, HasAp (Pseudomonas aeruginosa, UniProt G3XD33, H32A).
T1 sequence (G3XD33 1-184 H32A): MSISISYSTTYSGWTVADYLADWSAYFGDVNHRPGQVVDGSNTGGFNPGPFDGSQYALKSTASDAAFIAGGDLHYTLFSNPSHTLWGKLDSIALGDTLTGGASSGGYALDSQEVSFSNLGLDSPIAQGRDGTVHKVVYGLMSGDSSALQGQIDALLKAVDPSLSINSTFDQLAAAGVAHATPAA
Kind of experiment: stopped-flow UV-vis kinetics at […] °C. It is filed as binding.

One may read the Kd as the concentration at which binding is half-saturated. The low end stands for tighter binding, the high end for weaker binding. As to `C=CC1=C(C)C2=Cc3c(C=C)c(C)c4[n]3[Fe]([Cl])[n]3c(c(C)c(CCC(=O)O)c3=CC3=NC(=C4)C(C)=C3CCC(=O)O)=CC1=N2` [hemin], the results for the Kd at HasAp [1] and at HasAp [2] were 35 µM and 61 µM, respectively.
